Results from publication PMC11679793, “Structure-Activity Relationship Study of Majusculamide D: Overcoming Metabolic Instability and Severe Toxicity with a Fluoro Analogue” (Marine Drugs, 2024).

Legend:
PANC-1 cells = experiment: MTT cell activity assay (inhibitory activity against PANC-1 cells); type: cell-based; conditions: Homo sapiens, PANC-1, 72 h, read-out: IC50 (nM), inhibitory activity against PANC-1 cells (Table 1), PANC-1 cells, 72 h incubation, mean ± SD, n = 3
Experimental: A total of 3000 PANC-1 cells were resuspended in 200 μL of culture medium and seeded into 96-well plates. After 24 h, the cells were treated with the compound and incubated for an additional 72 h. Following the incubation, 20 μL of 5 mg/mL MTT solution (Solarbio, China) was added to each well in the dark, and the cells were incubated for another 4 h. After incubation, the culture medium was discarded, and the wells were washed with PBS to remove any residual medium. Then, 200 μL of DMSO was added to each well to fully dissolve the formazan crystals, and the solution was mixed thoroughly. The absorbance was measured at 492 nm/570 nm, and the data were analyzed using GraphPad Prism.

[1] = Stability in mouse plasma assay; type: in vitro ADME; conditions: 1 μM, 37 °C; for stability in mouse plasma compared to 1a (in words): 0-24 h
Experimental: Thaw plasma at room temperature and vortex for 3–5 s. Centrifuge at 3000 rpm at 10 °C for 10 min, and carefully transfer the supernatant to a new Eppendorf tube. Preincubate the plasma at 37 °C for 10 min. Prepare a series of test substances by adding 3 μL of the compound (100 μM) to 297 μL of plasma to achieve a final concentration of 1 μM, ensuring that the DMSO concentration in plasma is 1%. Propantheline bromide is used as a positive control. Incubate the mixture at 37 °C, and at specified time points (0, 1, 2, 4, and 24 h), take 50 μL of the plasma sample. To terminate the reaction, add 250 μL of acetonitrile (containing an internal standard), vortex thoroughly, and centrifuge at 16,000 rcf (4 °C) for 10 min. Collect 130 μL of the supernatant and dilute with 70 μL of pure water for LC-MS/MS analysis. The concentration of the test substances in plasma samples was determined using LC-MS/MS. The stability of the test substance in plasma was evaluated by measuring the remaining percentage of the compound in the plasma over time.

PANC-1 xenograft tumor = conditions: for tumor inhibition rate (%): calculated from tumor weight, 1c, gemcitabine 20 mg/kg i.v.
Experimental: Furthermore, a xenografted murine subcutaneous tumor model was employed to evaluate the effects of majusculamide D and the optimized analogues 1c and 1n (Figure 1B). PANC1-bearing BALB/c nude mice were separated randomly, with a total of six mice in each group. Gemcitabine was chosen as the positive drug; the mice were then administered intravenous doses of 1c (5 mg/kg), 1n (5 mg/kg), 1a (5 mg/kg), and gemcitabine (20 mg/kg) every other day for 24 days.
A total of 4 × 10^6 PANC-1 cells suspended in 100 μL PBS were subcutaneously injected into the right shoulder region of BALB/c nude mice. When the tumor volume reached approximately 200 mm^3, the mice were euthanized, and the tumor tissues were harvested and designated as F1 generation. Tumor tissues were then cut into small cubes measuring approximately 3 × 3 × 3 mm, which were implanted into new BALB/c mice to propagate the tumors. This procedure was repeated to obtain the F2 generation of tumors. Finally, mice bearing F3 generation transplant tumors were used for drug treatment experiments. When the tumor volume reached approximately 80–100 mm^3, the mice were randomly divided into five groups (n = 6): control group, 5 mg/kg compound 1a group, 5 mg/kg compound 1c group, 5 mg/kg compound 1n group, and 20 mg/kg gemcitabine group. The compounds 1a, 1c, and 1n were dissolved in DMSO and then diluted with 0.9% physiological saline to achieve a final concentration of 0.5 mg/mL as the dosing concentration. Gemcitabine was dissolved directly in 0.9% saline to achieve a final concentration of 2 mg/mL as the dosing concentration. The compounds were administered intravenously every two days, alternating between the left and right tail veins to minimize vein damage. Injections were performed using ultra-fine syringes (30G needles) to reduce stress and ensure consistent delivery. The body weight and tumor volume of the mice were measured every four days. On day 24, the mice were euthanized, and the tumor weights were recorded. Tumor volume (V) was calculated using the formula: V = (ab^2)/2, with “a” representing the long diameter of the tumor and “b” representing the short diameter of the tumor. […] Tumor weight was used to calculate the tumor inhibition rate (Figure 1G).

[2] = Serum biochemical analysis and H&E histology of liver and kidney; type: in vivo, mice; conditions: 5 mg/kg every other day, 14 days
Experimental: In the biochemical and histological assays, 1n (5 mg/kg) and 1a (5 mg/kg) were administered to mice every other day, with the control group receiving an equivalent dose of saline. Following 14 days, mouse serum was collected for biochemical analysis, and organs were fixed for histological examination. […] In comparison, the liver tissues of the 1n-treated and control groups were normal.
Mice were euthanized, and liver and kidney tissues were collected and fixed in 10% neutral-buffered formalin for 48 h. The fixed tissues were processed for paraffin embedding, including dehydration in a graded ethanol series, clearing with xylene, and infiltration with molten paraffin wax. Paraffin blocks were sectioned into 4 μm slices using a rotary microtome, and the sections were mounted onto glass slides. The slides were dried at 60 °C for 4 h to ensure proper tissue adhesion. Following deparaffinization and rehydration, staining was performed according to the manufacturer’s instructions for the H&E staining kit (Solarbio, China). The sections were immersed in a hematoxylin solution for 3 min to stain the nuclei and then rinsed under running tap water for 1 minute to remove excess stain. Differentiation was achieved by briefly immersing the slides in a 1% hydrochloric acid-ethanol solution, followed by neutralization in 0.6% ammonia water until the nuclei appeared blue. Eosin staining was applied for 30 s to stain cytoplasmic and extracellular components, imparting a pink coloration. The slides were rinsed under running tap water for 30 s to remove excess eosin. Finally, the sections were dehydrated through a graded ethanol series, cleared with xylene, and coverslipped with a neutral resin mounting medium to preserve the stained tissues for microscopic examination.

Structure (SMILES)	IC50 (PANC-1 cells) [nM]	stability in mouse plasma compared to 1a (in words) [1]	remaining percentage in mouse plasma after 24 h ([1]; 24 h incubation) [%]	impact on mouse body weight gain (PANC-1 xenograft tumor; 5 mg/kg i.v. every other day, 24 days)	mice dead in treated group (PANC-1 xenograft tumor; 5 mg/kg i.v., xenografted mouse model, six mice per group)	tumor inhibition rate (%) (PANC-1 xenograft tumor; day 24, 1a, 1n 5 mg/kg)	tumor weight (PANC-1 xenograft tumor; day 24, i.v. every other day, 1a, 1n 5 mg/kg, gemcitabine 20 mg/kg, mean ± SD) [g]	tumor volume (PANC-1 xenograft tumor; i.v. every other day for 24 days, 1a, 1n 5 mg/kg, gemcitabine 20 mg/kg, mean ± SD, n = 6) [mm^3]	kidney tissue H&E histology [2]	liver tissue H&E histology [2]	serum ALT and AST levels compared to the control group ([2]; n = 3)
CCCCCC[C@@H](C)C(=O)N(C)[C@@H](Cc1ccc(F)cc1)C(=O)N[C@H](C(=O)N(C)[C@H](C(=O)N1C[C@@H](O)C[C@H]1C(=O)N1C(=O)C=C[C@@H]1C)C(C)C)[C@@H](C)OC(F)(F)F [Compound 1n]	3.83	significantly superior stability compared to 1a	> 50	lesser impact on weight gain compared to 1a	no mouse dead	51.5	0.542 ± 0.156	553.3 ± 166.8	no significant pathological differences	normal	no significant differences
CCCCC(C)CC(C)C(=O)N(C)C(Cc1ccc(OC)cc1)C(=O)NC(C(=O)N(C)C(C(=O)N1CC(O)CC1C(=O)N1C(=O)C=CC1C)C(C)C)C(C)OC(F)(F)F (centres unmarked) [Compound 1c]	2.07 ± 0.67	significantly superior stability compared to 1a				40.4					
